One may read the IC50 as the concentration that inhibits the measured activity by half. A lower IC50 goes with greater potency.

For this test, the target named is T1, CNG channel (bovine retinal rod cGMP-gated channel alpha subunit) (Bos taurus, UniProt Q00194).
T1 sequence (Q00194 1-690): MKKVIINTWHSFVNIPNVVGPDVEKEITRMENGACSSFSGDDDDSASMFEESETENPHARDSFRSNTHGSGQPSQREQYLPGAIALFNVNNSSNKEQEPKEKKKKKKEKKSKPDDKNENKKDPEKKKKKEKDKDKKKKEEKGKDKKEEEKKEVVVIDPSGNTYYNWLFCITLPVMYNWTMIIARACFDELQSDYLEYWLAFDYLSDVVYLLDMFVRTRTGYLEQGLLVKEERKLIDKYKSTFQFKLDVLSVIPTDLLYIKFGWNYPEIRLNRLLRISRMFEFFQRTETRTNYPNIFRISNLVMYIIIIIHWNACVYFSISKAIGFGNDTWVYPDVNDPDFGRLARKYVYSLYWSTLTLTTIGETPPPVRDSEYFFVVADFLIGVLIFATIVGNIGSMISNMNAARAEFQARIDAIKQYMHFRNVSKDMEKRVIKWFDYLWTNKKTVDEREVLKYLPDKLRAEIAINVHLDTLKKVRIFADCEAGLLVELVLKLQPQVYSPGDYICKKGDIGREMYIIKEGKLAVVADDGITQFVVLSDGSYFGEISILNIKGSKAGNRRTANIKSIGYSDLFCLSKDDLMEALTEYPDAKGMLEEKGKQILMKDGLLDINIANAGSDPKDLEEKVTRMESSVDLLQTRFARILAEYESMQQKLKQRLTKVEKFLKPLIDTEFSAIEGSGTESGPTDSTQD
The test is described as follows: outside-out patch clamp, macroscopic current block. Type of test: cell-based.
The compound `NCCCCN` [putrescine] had an IC50 of 1400 µM.

`NCCCCNCCCN` [spermidine] returned an IC50 of 50 µM.

`NCCCNCCCCNCCCN` [spermine]: the IC50 is 3.1 µM.

The record behind these values is PMC2222994 (The Journal of General Physiology, 1999).
